The IC50 is the concentration at which inhibition is half-maximal.

SMILES strings stand for the structures.

The text below walks through data of US11986471B2, “Compounds and methods of use” (Tango Therapeutics, Inc., priority 2018, dated 2024).

Assay [1] concerns the target T1, PRMT5 (Homo sapiens, UniProt O14744).
T1 construct: purchased Viva (custom protein)
The assay can be described thus: PRMT5 IC50 assay with no cofactor. It counts as biochemical. In outline: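 For the SAM-containing format, dividing IC50 by 1.5 yields Ki; for the MTA-containing format the divisor is 13.5. A third format without cofactor gives IC50 alone.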

For assay [2], the target named is T1, PRMT5. Nature of the assay: PRMT5 IC50 assay in the presence of SAM as cofactor. It counts as biochemical. The gist of the method: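 Ki conversion: SAM arm, Ki=IC50/1.5; MTA arm, Ki=IC50/13.5. No-cofactor arm reported as IC50 only. Selectivity expressed as Ki(SAM)/Ki(MTA).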
The test system of a further assay is HAP1 MTAP-intact. The assay can be described thus: SDMA in-cell western assay, HAP1 MTAP-intact cell line. It counts as cell-based. Particulars: Homo sapiens. In outline: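 HAP1 isogenic pair: endogenous MTAP vs MTAP-null. Readout SDMA by in-cell western; IC50 per line. Ratio ≥3 fold = MTAP-selective.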
In assay [3] the target is T1, PRMT5. The assay can be described thus: PRMT5 IC50 assay in the presence of MTA as cofactor. It counts as biochemical. The settings on record: for IC50: PRMT5, MTA as cofactor. The gist of the method: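 Three cofactor conditions are run: SAM-bound, MTA-bound and cofactor-free enzyme. IC50 is read from each; for the SAM and MTA arms it is divided by 1.5 and 13.5 respectively to give Ki.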

Another assay deals with HAP1 MTAP-deleted. The assay can be described thus: SDMA in-cell western assay, HAP1 MTAP-deleted cell line. It counts as cell-based. Particulars: for IC50: Homo sapiens, HAP1 MTAP-deleted cell line; for MTAP Intact/Deleted Ratio: IC50 ratio HAP1 MTAP-intact / HAP1 MTAP-deleted. The gist of the method:
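IC50 from SDMA in-cell western; HAP1 line lacking MTAP (null), paired isogenically with MTAP-intact HAP1 expressing endogenous MTAP.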

Setting [4] is: ratio between the Ki in the presence of SAM and the Ki in the presence of MTA.
The mark [5] stands for this setting: ratio between Ki in the presence of SAM and Ki in the presence of MTA.

T1 sequence (O14744 whole entry): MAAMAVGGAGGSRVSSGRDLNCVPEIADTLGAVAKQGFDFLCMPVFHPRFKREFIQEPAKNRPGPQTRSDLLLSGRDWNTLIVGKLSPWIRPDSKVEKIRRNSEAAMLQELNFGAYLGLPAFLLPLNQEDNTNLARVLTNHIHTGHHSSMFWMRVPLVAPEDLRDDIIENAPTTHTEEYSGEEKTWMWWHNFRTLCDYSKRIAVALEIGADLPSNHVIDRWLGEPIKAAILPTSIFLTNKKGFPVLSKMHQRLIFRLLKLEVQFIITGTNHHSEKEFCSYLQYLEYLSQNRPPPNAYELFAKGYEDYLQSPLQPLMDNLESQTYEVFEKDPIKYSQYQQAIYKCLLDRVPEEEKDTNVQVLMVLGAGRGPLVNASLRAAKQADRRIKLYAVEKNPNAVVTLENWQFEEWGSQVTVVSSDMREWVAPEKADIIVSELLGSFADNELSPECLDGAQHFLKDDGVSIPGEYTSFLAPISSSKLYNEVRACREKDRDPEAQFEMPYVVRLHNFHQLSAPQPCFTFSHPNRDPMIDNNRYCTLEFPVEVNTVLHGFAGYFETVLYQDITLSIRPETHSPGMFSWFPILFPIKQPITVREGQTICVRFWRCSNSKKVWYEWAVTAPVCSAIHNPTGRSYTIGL
T1 sequence (Q9BQA1 whole entry partner): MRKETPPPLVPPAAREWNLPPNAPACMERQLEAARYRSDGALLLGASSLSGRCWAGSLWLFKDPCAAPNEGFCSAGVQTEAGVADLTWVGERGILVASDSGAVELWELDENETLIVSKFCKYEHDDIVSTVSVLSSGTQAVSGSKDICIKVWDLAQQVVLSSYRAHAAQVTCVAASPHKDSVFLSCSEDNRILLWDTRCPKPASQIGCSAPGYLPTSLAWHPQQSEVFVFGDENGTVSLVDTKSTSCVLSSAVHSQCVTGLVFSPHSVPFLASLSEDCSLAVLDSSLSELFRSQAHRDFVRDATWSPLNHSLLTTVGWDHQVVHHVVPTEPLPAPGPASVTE

With `CC(C)CC(=O)N1CCC(Nc2cc(C(=O)NC[C@H](O)CN3CCc4cc(OCc5cnco5)ccc4C3)ccn2)CC1` [Compound 446, N-[(2S)-2-hydroxy-3-[6-(oxazol-5-ylmethoxy)-3,4-dihydro-1H-isoquinolin-2-yl]propyl]-2-[[1-(3-methylbutanoyl)-4-piperidyl]amino]pyridine-4-carboxamide], the IC50 was 500 to 5000 nM on PRMT5 [1]; 50 to 500 nM at PRMT5 [2]; 1000 to 10000 nM in the assay with HAP1 MTAP-intact; less than 50 nM on PRMT5 [3]; less than 1000 nM in the assay with HAP1 MTAP-deleted. At PRMT5 [3] (setting [4]), the “SAM/MTA Ratio” value was “A (a Ki ratio greater than or equal to 10 fold between the Ki in the presence of SAM and the Ki in the presence of MTA)”. In addition, in the assay with HAP1 MTAP-deleted, the “MTAP Intact/Deleted Ratio” value was “C* (an IC50 ratio of less than 3 fold between the IC50 in the HAP1 MTAP-intact cell line and the HAP1 MTAP-deleted cell line)”.

As to `Cc1ncoc1COc1ccc2c(n1)CCN(C[C@@H](O)CNC(=O)c1ccnc(NC3CCC3)c1)C2` [Compound 467, 2-(cyclobutylamino)-N-[(2S)-2-hydroxy-3-[2-[(4-methyloxazol-5-yl)methoxy]-7,8-dihydro-5H-1,6-naphthyridin-6-yl]propyl]pyridine-4-carboxamide], the IC50 at PRMT5 [1] is no less than 5000 nM; on PRMT5 [2] it was 50 to 500 nM; in the assay with HAP1 MTAP-intact it was no less than 10000 nM; at PRMT5 [3], 50 to 500 nM; with HAP1 MTAP-deleted it was 1000 to 10000 nM. Also, on PRMT5 [3] (setting [4]), the “SAM/MTA Ratio” value is “A (a Ki ratio greater than or equal to 10 fold between the Ki in the presence of SAM and the Ki in the presence of MTA)”. Further, the “MTAP Intact/Deleted Ratio” value in the assay with HAP1 MTAP-deleted is “C* (an IC50 ratio of less than 3 fold between the IC50 in the HAP1 MTAP-intact cell line and the HAP1 MTAP-deleted cell line)”.

Turning to `Cc1ncoc1COc1ccc2c(c1)CCN(C[C@@H](O)CNC(=O)c1cc(NC3COC3)nc(N3CCN(C)CC3)n1)C2` [Compound 387], the IC50 is 500 to 5000 nM on PRMT5 [1] (read-out: No Co-factor IC50); 50 to 500 nM at PRMT5 [2]; 1000 to 10000 nM in the assay with HAP1 MTAP-intact; 50 to 500 nM on PRMT5 [3]; less than 1000 nM with HAP1 MTAP-deleted. The “SAM/MTA Ratio” value on PRMT5 [3] (setting [5]) was “A (a Ki ratio greater than or equal to 10 fold between the Ki in the presence of SAM and the Ki in the presence of MTA)”. For the same molecule, the “MTAP Intact/Deleted Ratio” value in the assay on HAP1 MTAP-deleted is “B* (an IC50 ratio greater than or equal to 3 fold but lower than 10 fold between the IC50 in the HAP1 MTAP-intact cell line and the HAP1 MTAP-deleted cell line)”.

With `COCCN(C)c1cc(C(=O)NC[C@H](O)CN2CCc3c(ccc(OCc4ocnc4C)c3C)C2)cc(NC2CCC2)n1` [Compound 437, 2-(cyclobutylamino)-N-[(2S)-2-hydroxy-3-{5-methyl-6-[(4-methyl-1,3-oxazol-5-yl)methoxy]-1,2,3,4-tetrahydroisoquinolin-2-yl}propyl]-6-[(2-methoxyethyl)(methyl)amino]pyridine-4-carboxamide], the concentration for half-maximal inhibition (IC50) against PRMT5 [1] was no less than 5000 nM; on PRMT5 [2] it was 50 to 500 nM; with HAP1 MTAP-intact, no less than 10000 nM; on PRMT5 [3], 50 to 500 nM; with HAP1 MTAP-deleted, 1000 to 10000 nM. Besides, on PRMT5 [3] (setting [4]), the “SAM/MTA Ratio” value is “A (a Ki ratio greater than or equal to 10 fold between the Ki in the presence of SAM and the Ki in the presence of MTA)”. For the same molecule, the “MTAP Intact/Deleted Ratio” value with HAP1 MTAP-deleted is “B* (an IC50 ratio greater than or equal to 3 fold but lower than 10 fold between the IC50 in the HAP1 MTAP-intact cell line and the HAP1 MTAP-deleted cell line)”.

For the molecule `Cc1ncoc1COc1ccc2c(c1)CCN(C[C@@H](O)CNC(=O)c1cc(NC3COC3)nc(N3CCN(C(C)(C)C)CC3)n1)C2` [Compound 396, 2-(4-tert-butylpiperazin-1-yl)-N-[(2S)-2-hydroxy-3-(6-[(4-methyl-1,3-oxazol-5-yl)methoxy]-1,2,3,4-tetrahydroisoquinolin-2-yl}propyl]-6-[(oxetan-3-yl)amino]pyrimidine-4-carboxamide], the 50% inhibitory concentration (IC50) at PRMT5 [1] (read-out: No Co-factor IC50) is 500 to 5000 nM; at PRMT5 [2], 50 to 500 nM; in the assay on HAP1 MTAP-intact, 1000 to 10000 nM; at PRMT5 [3] it was 50 to 500 nM; in the assay on HAP1 MTAP-deleted, less than 1000 nM. Further, on PRMT5 [3] (setting [5]), the “SAM/MTA Ratio” value is “A (a Ki ratio greater than or equal to 10 fold between the Ki in the presence of SAM and the Ki in the presence of MTA)”. For the same molecule, the “MTAP Intact/Deleted Ratio” value with HAP1 MTAP-deleted was “C* (an IC50 ratio of less than 3 fold between the IC50 in the HAP1 MTAP-intact cell line and the HAP1 MTAP-deleted cell line)”.

Take `CCC(=O)N1CCN(c2nc(NC3COC3)cc(C(=O)NC[C@H](O)CN3CCc4cc(OCc5ocnc5C)ccc4C3)n2)CC1` [Compound 409, N-[(2S)-2-hydroxy-3-{6-[(4-methyl-1,3-oxazol-5-yl)methoxy]-1,2,3,4-tetrahydroisoquinolin-2-yl}propyl]-6-[(oxetan-3-yl)amino]-2-(4-propanoylpiperazin-1-yl)pyrimidine-4-carboxamide]: the IC50 on PRMT5 [1] (read-out: No Co-factor IC50) is 500 to 5000 nM; on PRMT5 [2], 50 to 500 nM; with HAP1 MTAP-intact, no less than 10000 nM; at PRMT5 [3], 50 to 500 nM; with HAP1 MTAP-deleted it was 1000 to 10000 nM. Moreover, the “SAM/MTA Ratio” value on PRMT5 [3] (setting [5]) was “A (a Ki ratio greater than or equal to 10 fold between the Ki in the presence of SAM and the Ki in the presence of MTA)”. In addition, in the assay on HAP1 MTAP-deleted, the “MTAP Intact/Deleted Ratio” value was “B* (an IC50 ratio greater than or equal to 3 fold but lower than 10 fold between the IC50 in the HAP1 MTAP-intact cell line and the HAP1 MTAP-deleted cell line)”.

Take `CC(=O)N1CCN(c2cc(C(=O)NC[C@H](O)CN3CCc4c(ccc(OCc5cnco5)c4Cl)C3)cc(NC3CCC3)n2)CC1` [Compound 545, (S)-2-(4-acetylpiperazin-1-yl)-N-(3-(5-chloro-6-(oxazol-5-ylmethoxy)-3,4-dihydroisoquinolin-2(1H)-yl)-2-hydroxypropyl)-6-(cyclobutylamino)isonicotinamide]: the IC50 is 500 to 5000 nM at PRMT5 [1]; 50 to 500 nM at PRMT5 [2]; no less than 10000 nM in the assay with HAP1 MTAP-intact; 50 to 500 nM on PRMT5 [3]; 1000 to 10000 nM in the assay on HAP1 MTAP-deleted. Moreover, the “SAM/MTA Ratio” value at PRMT5 [3] (setting [4]) was “A (a Ki ratio greater than or equal to 10 fold between the Ki in the presence of SAM and the Ki in the presence of MTA)”. For the same molecule, in the assay with HAP1 MTAP-deleted, the “MTAP Intact/Deleted Ratio” value was “B* (an IC50 ratio greater than or equal to 3 fold but lower than 10 fold between the IC50 in the HAP1 MTAP-intact cell line and the HAP1 MTAP-deleted cell line)”.

As to `CCN1CCN(c2cc(C(=O)NC[C@H](O)CN3CCc4c(ccc(OCc5ocnc5C)c4C)C3)cc(NC3CCC3)n2)CC1` [Compound 394, 2-(cyclobutylamino)-6-(4-ethylpiperazin-1-yl)-N-[(2S)-2-hydroxy-3-{5-methyl-6-[(4-methyl-1,3-oxazol-5-yl)methoxy]-1,2,3,4-tetrahydroisoquinolin-2-yl}propyl]pyridine-4-carboxamide], the IC50 at PRMT5 [1] (read-out: No Co-factor IC50) is 500 to 5000 nM; at PRMT5 [2] it was 50 to 500 nM; in the assay on HAP1 MTAP-intact, no less than 10000 nM; on PRMT5 [3], 50 to 500 nM; in the assay with HAP1 MTAP-deleted, less than 1000 nM. Also, the “SAM/MTA Ratio” value on PRMT5 [3] (setting [5]) was “A (a Ki ratio greater than or equal to 10 fold between the Ki in the presence of SAM and the Ki in the presence of MTA)”. Further, in the assay with HAP1 MTAP-deleted, the “MTAP Intact/Deleted Ratio” value was “A* (an IC50 ratio greater than or equal to 10 fold between the IC50 in the HAP1 MTAP-intact cell line and the HAP1 MTAP-deleted cell line)”.

As to `Cc1ncoc1COc1ccc2c(c1Br)CCN(C[C@@H](O)CNC(=O)c1ccnc(NC3CCC3)c1)C2` [Compound 267, N-[(2S)-3-[5-bromo-6-[(4-methyloxazol-5-yl)methoxy]-3,4-dihydro-1H-isoquinolin-2-yl]-2-hydroxy-propyl]-2-(cyclobutylamino)pyridine-4-carboxamide], the half-inhibitory concentration (IC50) on PRMT5 [1] (read-out: No Co-factor IC50) is no less than 5000 nM; at PRMT5 [2] it was 500 to 5000 nM; with HAP1 MTAP-intact it was no less than 10000 nM; at PRMT5 [3], 50 to 500 nM; with HAP1 MTAP-deleted it was no less than 10000 nM. Further, in the assay with HAP1 MTAP-deleted, the “MTAP Intact/Deleted Ratio” value was “C* (an IC50 ratio of less than 3 fold between the IC50 in the HAP1 MTAP-intact cell line and the HAP1 MTAP-deleted cell line)”.

In the case of `COc1cnc(NC2CCC2)cc1C(=O)NC[C@H](O)CN1CCc2cc(OCc3ocnc3C)ccc2C1` [Compound 602], the IC50 at PRMT5 [1] lay in the range of 500 to 5000 nM; at PRMT5 [2] it was 50 to 500 nM; in the assay with HAP1 MTAP-intact it was 1000 to 10000 nM; at PRMT5 [3], 50 to 500 nM; with HAP1 MTAP-deleted it was 1000 to 10000 nM. The “SAM/MTA Ratio” value on PRMT5 [3] (setting [4]) is “A (a Ki ratio greater than or equal to 10 fold between the Ki in the presence of SAM and the Ki in the presence of MTA)”. In the assay on HAP1 MTAP-deleted, the “MTAP Intact/Deleted Ratio” value is “C* (an IC50 ratio of less than 3 fold between the IC50 in the HAP1 MTAP-intact cell line and the HAP1 MTAP-deleted cell line)”.

Turning to `CC(=O)N1CC(Nc2cc(C(=O)NC[C@H](O)CN3CCc4cc(OCc5cnco5)ccc4C3)nc(N3CCCCC3)n2)C1` [Compound 365, (S)-6-((1-acetylazetidin-3-yl)amino)-N-(2-hydroxy-3-(6-(oxazol-5-ylmethoxy)-3A-dihydroisoquinolin-2(1H)-yl)propyl)-2-(piperidin-1-yl)pyrimidine-4-carboxamide], the concentration for half-maximal inhibition (IC50) was 500 to 5000 nM at PRMT5 [1] (read-out: No Co-factor IC50); 50 to 500 nM at PRMT5 [2]; 1000 to 10000 nM in the assay with HAP1 MTAP-intact; less than 50 nM on PRMT5 [3]; less than 1000 nM in the assay with HAP1 MTAP-deleted. Also, the “SAM/MTA Ratio” value at PRMT5 [3] (setting [5]) was “A (a Ki ratio greater than or equal to 10 fold between the Ki in the presence of SAM and the Ki in the presence of MTA)”. Besides, the “MTAP Intact/Deleted Ratio” value with HAP1 MTAP-deleted is “B* (an IC50 ratio greater than or equal to 3 fold but lower than 10 fold between the IC50 in the HAP1 MTAP-intact cell line and the HAP1 MTAP-deleted cell line)”.
